In PubChem BioAssay AID1963856 (Molecular Pharmacology Branch, DTP, NCI, 2024):

Test system: LG0567-F671-PDC KRAS tumor spheroid viability
Assay: Anticancer human tumor LG0567-F671-PDC patient-derived lung adenocarcinoma cell line growth inhibition [KRAS2]
Conditions: spheroids with HUVEC and MSC; for IC50: curve of first compound; for viability, T/C: stronger effect = lower value
How it was run: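 Combination screen of spheroid viability in tumor-cell co-cultures with endothelial (HUVEC) and mesenchymal stem cell stroma. Each agent was tested in half-log dilutions, topping at clinical Cmax or at 10 microM without a known Cmax.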

[1] = second compound 0.1 µM, first compound 0.01 µM
[2] = second compound 0.1 µM, first compound 0.0316 µM
[3] = second compound 0.1 µM, first compound 0.1 µM
[4] = second compound 0.1 µM, first compound 0.316 µM
[5] = second compound 0.1 µM, first compound 1 µM
[6] = second compound 0.1 µM, first compound 3.16 µM
[7] = second compound 0.316 µM, first compound 0.01 µM
[8] = second compound 0.316 µM, first compound 0.0316 µM
[9] = second compound 0.316 µM, first compound 0.1 µM
[10] = second compound 0.316 µM, first compound 0.316 µM
[11] = second compound 0.316 µM, first compound 1 µM
[12] = second compound 0.316 µM, first compound 3.16 µM
[13] = second compound 1 µM, first compound 0.01 µM
[14] = second compound 1 µM, first compound 0.0316 µM
[15] = second compound 1 µM, first compound 0.1 µM
[16] = second compound 1 µM, first compound 0.316 µM
[17] = second compound 1 µM, first compound 1 µM
[18] = second compound 1 µM, first compound 3.16 µM
[19] = second compound 3.16 µM, first compound 0.01 µM
[20] = second compound 3.16 µM, first compound 0.0316 µM
[21] = second compound 3.16 µM, first compound 0.1 µM
[22] = second compound 3.16 µM, first compound 0.316 µM
[23] = second compound 3.16 µM, first compound 1 µM
[24] = second compound 3.16 µM, first compound 3.16 µM
[25] = second compound 10 µM, first compound 0.01 µM
[26] = second compound 10 µM, first compound 0.0316 µM
[27] = second compound 10 µM, first compound 0.1 µM
[28] = second compound 10 µM, first compound 0.316 µM
[29] = second compound 10 µM, first compound 1 µM
[30] = second compound 10 µM, first compound 3.16 µM
[31] = second compound 0.1 µM, first compound 10 µM
[32] = second compound 0.316 µM, first compound 10 µM
[33] = second compound 1 µM, first compound 10 µM
[34] = second compound 3.16 µM, first compound 10 µM
[35] = second compound 10 µM, first compound 10 µM
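Note: drug exposure lasted seven days after spheroids formed for three days.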
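Throughout, for viability, T/C: 100% = DMSO vehicle control viability.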

Structure (SMILES) | IC50 (second compound 0.1 µM) | IC50 (second compound 0.316 µM) | IC50 (second compound 1 µM) | IC50 (second compound 3.16 µM) | IC50 (second compound 10 µM) | viability, T/C [2] | viability, T/C [3] | viability, T/C [4] | viability, T/C [5] | viability, T/C [8] | viability, T/C [9] | viability, T/C [10] | viability, T/C [11] | viability, T/C [14] | viability, T/C [15] | viability, T/C [16] | viability, T/C [17] | viability, T/C [20] | viability, T/C [21] | viability, T/C [22] | also measured
CC1COCCN1c1cc(-c2ccnn2C)c2ccnc(-c3ccn[nH]3)c2n1 (stereo not given) + COc1cc2nc(C)nc(NC(C)c3cc(N)cc(C(F)(F)F)c3)c2cc1OC1CCOC1 | 219 nM | 79.1 nM | 67.7 nM | 14.4 nM | 46.1 nM | 60.8% | 50.1% | 56.2% | 41.2% | 70.7% | 46.7% | 23.8% | 15.3% | 59.6% | 44.2% | 36.2% | 16.9% | 37.9% | 21.8% | 10.1% | viability, T/C [1]: 91.9%; viability, T/C [6]: 15.7%; viability, T/C [7]: 84%; viability, T/C [12]: 36.7%; viability, T/C [13]: 79.3%; viability, T/C [18]: 18.4%; viability, T/C [19]: 55.5%; viability, T/C [23]: 4.98%; viability, T/C [24]: 24.5%; viability, T/C [25]: 53.2%; viability, T/C [26]: 54.3%; viability, T/C [27]: 43.6%; viability, T/C [28]: 29.6%; viability, T/C [29]: 32.2%; viability, T/C [30]: 22.1%
CC1OCC2(CCN(c3cnc(Sc4ccnc(N)c4Cl)c(N)n3)CC2)C1N (stereo not given) + COc1cc2nc(C)nc(NC(C)c3cc(N)cc(C(F)(F)F)c3)c2cc1OC1CCOC1 | 62.2 nM | 55.5 nM | 68.1 nM | 57.7 nM | 56.2 nM | 61.9% | 40.3% | 30.6% | 27.5% | 58% | 41.6% | 30.6% | 25.8% | 61.5% | 43.6% | 32% | 26.3% | 58.1% | 42.3% | 32% | viability, T/C [6]: 23.1%; viability, T/C [31]: 15.3%; viability, T/C [12]: 21.7%; viability, T/C [32]: 16%; viability, T/C [18]: 19.2%; viability, T/C [33]: 13.5%; viability, T/C [23]: 25.4%; viability, T/C [24]: 19.2%; viability, T/C [34]: 13.6%; viability, T/C [26]: 52.7%; viability, T/C [27]: 47.4%; viability, T/C [28]: 28.9%; viability, T/C [29]: 20.2%; viability, T/C [30]: 19.5%; viability, T/C [35]: 16%
CCN1CCN(Cc2ccc(Nc3ncc(F)c(-c4cc(F)c5nc(C)n(C(C)C)c5c4)n3)nc2)CC1 + COc1cc2nc(C)nc(NC(C)c3cc(N)cc(C(F)(F)F)c3)c2cc1OC1CCOC1 | 913 nM | 47.3 nM | 7.74 nM | < 3.16 nM | 5.32 nM | 54.3% | 56.7% | 54.8% | 47.3% | 51.5% | 47.5% | 44.2% | 45.3% | 45.7% | 38.7% | 32.2% | 42.4% | 34.7% | 33.6% | 29.4% | viability, T/C (second compound 0.1 µM, first compound 0.00316 µM): 70.5%; viability, T/C [1]: 64.7%; viability, T/C (second compound 0.316 µM, first compound 0.00316 µM): 69%; viability, T/C [7]: 64.2%; viability, T/C (second compound 1 µM, first compound 0.00316 µM): 57.3%; viability, T/C [13]: 47.3%; viability, T/C (second compound 3.16 µM, first compound 0.00316 µM): 44.4%; viability, T/C [19]: 39.5%; viability, T/C [23]: 30.8%; viability, T/C (second compound 10 µM, first compound 0.00316 µM): 60.8%; viability, T/C [25]: 34.8%; viability, T/C [26]: 26.5%; viability, T/C [27]: 9.45%; viability, T/C [28]: 0.94%; viability, T/C [29]: 0.43%
CCNC(=O)CC1N=C(c2ccc(Cl)cc2)c2cc(OC)ccc2-n2c(C)nnc21 (stereo not given) + COc1cc2nc(C)nc(NC(C)c3cc(N)cc(C(F)(F)F)c3)c2cc1OC1CCOC1 | 410 nM | 411 nM | 403 nM | 319 nM | 224 nM | 97% | 82.3% | 61.6% | 17.1% | 109% | 96.5% | 62.3% | 10% | 84.6% | 87.8% | 60.9% | 9.34% | 78.9% | 69.9% | 50.8% | viability, T/C [6]: 8.29%; viability, T/C [31]: 5.17%; viability, T/C [12]: 8.83%; viability, T/C [32]: 7.95%; viability, T/C [18]: 7.07%; viability, T/C [33]: 8.48%; viability, T/C [23]: 9.17%; viability, T/C [24]: 6.95%; viability, T/C [34]: 10.1%; viability, T/C [26]: 74.5%; viability, T/C [27]: 59.8%; viability, T/C [28]: 47.5%; viability, T/C [29]: 20.6%; viability, T/C [30]: 10%; viability, T/C [35]: 8.82%
Cn1nccc1Nc1nccc(-c2cc3c(s2)C(C)(C)N(CCN2CCOCC2)C3=O)n1 + COc1cc2nc(C)nc(NC(C)c3cc(N)cc(C(F)(F)F)c3)c2cc1OC1CCOC1 | 495 nM | 456 nM | 506 nM | 528 nM | 609 nM | 79.7% | 67% | 55.3% | 43.2% | 80.5% | 70.7% | 53.9% | 42.1% | 68.2% | 68% | 54.8% | 41.5% | 71.1% | 65.6% | 56.5% | viability, T/C [6]: 31.3%; viability, T/C [31]: 26.6%; viability, T/C [12]: 25.3%; viability, T/C [32]: 26.1%; viability, T/C [18]: 30.3%; viability, T/C [33]: 25.5%; viability, T/C [23]: 42.9%; viability, T/C [24]: 30.8%; viability, T/C [34]: 30.2%; viability, T/C [26]: 74.6%; viability, T/C [27]: 72.2%; viability, T/C [28]: 55.8%; viability, T/C [29]: 45.4%; viability, T/C [30]: 33.4%; viability, T/C [35]: 29.5%
